Read-outs that look alike come from different tables or passages of the source.
Key:
Format in all cases: in vivo
[1] = test system: Echinochloa crus-galli (ECHCG); assay: Pre-emergence herbicidal action against ECHCG; conditions: dosage 320 g/ha
How it was run: (§1)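 Pre-emergence soil-surface spray, WP/EC formulation, 0.5% additive, 600 l/ha water, rates of 320 g/ha or lower. Greenhouse, ~3 wk. Visual score, % of untreated control (100% = plants dead, 0% = like control).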

Oryza sativa (ORYSA) [2] = conditions: pre-emergence, crop plant compatibility, in comparison to untreated controls
How it was run: (§2)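 Crop injury rated visually in percent against untreated plants roughly 3 weeks after treatment (0% no effect, 100% plants dead). Compounds, as WP or EC with 0.5% additive in 600 l/ha water, were applied to the covering soil right after sowing; greenhouse growth. Suffixes a, b, c denote different dosages.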

[3] = test system: Verconica persica (VERPE); assay: Pre-emergence herbicidal action against VERPE; conditions: dosage 320 g/ha
How it was run: as §1

Viola tricolor (VIOTR) [4] = assay: Post-emergence herbicidal action against VIOTR; conditions: 80 g/ha
How it was run: (§3)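 Values are percent visual activity (0% like control, 100% plants dead) after about 3 weeks in the greenhouse. Treatment: post-emergence spray at one-leaf stage, 600 l/ha spray volume, 0.5% additive, doses 320 g/ha or lower.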

[5] = test system: Abutilon theophrasti (ABUTH); assay: Post-emergence herbicidal action against ABUTH; conditions: visual rating about 3 weeks after treatment vs untreated controls (100% = plants have died, 0% = like control plants)
How it was run: as §3

[6] = test system: Polygonum convolvulus (POLCO); assay: Pre-emergence herbicidal action against POLCO
How it was run: as §1

[7] = test system: Alopecurus myosuroides (ALOMY); assay: Pre-emergence herbicidal action against ALOMY; conditions: scored visually after about 3 weeks, 100% = plants have died
How it was run: as §1

[8] = test system: Echinochloa crus-galli (ECHCG); assay: Post-emergence herbicidal action against ECHCG
How it was run: as §3

[9] = test system: Amaranthus retroflexus (AMARE); assay: Post-emergence herbicidal action against AMARE; conditions: 80 g/ha, visual rating about 3 weeks after treatment vs untreated controls (100% = plants have died, 0% = like control plants)
How it was run: as §3

[10] = test system: Polygonum convolvulus (POLCO); assay: Post-emergence herbicidal action against POLCO; conditions: dosage 80 g/ha
How it was run: as §3

[11] = test system: Pharbitis purpurea (PHBPU); assay: Post-emergence herbicidal action against PHBPU
How it was run: as §3

[12] = test system: Matricaria inodora (MATIN); assay: Post-emergence herbicidal action against MATIN; conditions: dosage 80 g/ha
How it was run: as §3

Lolium rigidum (LOLRI) [13] = assay: Post-emergence herbicidal action against LOLRI
How it was run: as §3

Viola tricolor (VIOTR) [14] = assay: Pre-emergence herbicidal action against VIOTR
How it was run: as §1

[15] = test system: Verconica persica (VERPE); assay: Post-emergence herbicidal action against VERPE
How it was run: as §3

[16] = test system: Alopecurus myosuroides (ALOMY); assay: Post-emergence herbicidal action against ALOMY; conditions: visual rating about 3 weeks after treatment vs untreated controls (100% = plants have died, 0% = like control plants)
How it was run: as §3

Setaria viridis (SETVI) [17] = assay: Pre-emergence herbicidal action against SETVI
How it was run: as §1

Oryza sativa (ORYSA) [18] = conditions: crop plant compatibility
How it was run: (§4)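 Visual rating (% effect vs. untreated plants; 100% = plant death) made about 3 weeks after treatment. Plants had been sprayed at one-leaf stage, 2–3 weeks post-sowing, with aqueous WP/EC preparations containing 0.5% additive, 600 l/ha water volume; a, b, c mark dose levels.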

Avena fatua (AVEFA) [19] = assay: Post-emergence herbicidal action against AVEFA; conditions: visual rating about 3 weeks after treatment
How it was run: as §3

[20] = test system: Digitaria sanguinalis (DIGSA); assay: Pre-emergence herbicidal action against DIGSA
How it was run: as §1

Lolium rigidum (LOLRI) [21] = assay: Pre-emergence herbicidal action against LOLRI
How it was run: as §1

Avena fatua (AVEFA) [22] = assay: Pre-emergence herbicidal action against AVEFA; conditions: 320 g/ha, visual scoring after about 3 weeks vs untreated controls
How it was run: as §1

[23] = test system: Amaranthus retroflexus (AMARE); assay: Pre-emergence herbicidal action against AMARE; conditions: visual scoring after about 3 weeks vs untreated controls
How it was run: as §1

[24] = test system: Digitaria sanguinalis (DIGSA); assay: Post-emergence herbicidal action against DIGSA; conditions: visual rating about 3 weeks after treatment
How it was run: as §3

[25] = test system: Matricaria inodora (MATIN); assay: Pre-emergence herbicidal action against MATIN; conditions: dosage 320 g/ha
How it was run: as §1

Zea mays (ZEAMX) = conditions: pre-emergence, 80 g/ha, crop plant compatibility, in comparison to untreated controls
How it was run: as §2

[26] = test system: Pharbitis purpurea (PHBPU); assay: Pre-emergence herbicidal action against PHBPU
How it was run: as §1

[27] = test system: Triticum aestivum (TRZAS); conditions: crop plant compatibility, 20 g/ha, effect vs untreated controls
How it was run: as §4

Setaria viridis (SETVI) [28] = assay: Post-emergence herbicidal action against SETVI
How it was run: as §3

[29] = 20 g/ha, effect vs untreated controls
[30] = 80 g/ha, effect in comparison to untreated controls
[31] = 80 g/ha, visual scoring after about 3 weeks vs untreated controls

Row | SMILES | Pre-emergence action against ECHCG in % [1] [%] | Pre-emergence action against ORYSA in % (Oryza sativa (ORYSA) [2]; 80 g/ha) [%] | Pre-emergence action against VERPE in % [3] [%] | Post-emergence action against ABUTH in % ([5]; 80 g/ha) [%] | Pre-emergence action against POLCO in % ([6]; dosage 320 g/ha) [%] | Pre-emergence action against ALOMY ([7]; 320 g/ha) [%] | Post-emergence action against ECHCG in % ([8]; dosage 80 g/ha) [%] | Post-emergence action against PHBPU in % ([11]; dosage 80 g/ha) [%] | Pre-emergence action against VIOTR in % (Viola tricolor (VIOTR) [14]; 320 g/ha, Viola tricolor) [%] | Post-emergence action against VERPE in % ([15]; dosage 80 g/ha) [%] | Post-emergence action against ALOMY in % ([16]; 80 g/ha) [%] | Pre-emergence action against SETVI in % (Setaria viridis (SETVI) [17]; dosage 320 g/ha) [%] | Post-emergence action against ORYSA in % (Oryza sativa (ORYSA) [18]; [29]) [%] | Post-emergence action against ORYSA in % (Oryza sativa (ORYSA) [18]; [30]) [%] | Pre-emergence action against DIGSA in % [20, 31] [%] | Pre-emergence action against DIGSA in % ([20]; dosage 320 g/ha) [%] | Pre-emergence action against LOLRI in % (Lolium rigidum (LOLRI) [21]; dosage 320 g/ha) [%] | Pre-emergence action against AVEFA in % (Avena fatua (AVEFA) [22]) [%] | Pre-emergence action against AMARE in % ([23]; 80 g/ha) [%] | Pre-emergence action against AMARE in % ([23]; 320 g/ha) [%] | other results
1 | COC(=O)[C@@H](C)NC(=O)COc1nn(-c2ccccn2)c(-c2ccnc(F)c2)c1Br [Example I-59] | 100 | 20 | 90 | 80 | 90 | 100 | 80 | 80 | 90 | 90 | 90 | 100 | 0 | 0 | 100 | 100 | 100 | 80 | 100 | 100 | Post-emergence action against VIOTR in % (Viola tricolor (VIOTR) [4]): 80%; Pre-emergence action against POLCO in % ([6]; dosage 80 g/ha): 80%; Pre-emergence action against ALOMY ([7]; 80 g/ha): 80%; Post-emergence action against AMARE in % [9]: 90%; Post-emergence action against POLCO in % [10]: 80%; Post-emergence action against MATIN in % [12]: 80%; Post-emergence action against LOLRI in % (Lolium rigidum (LOLRI) [13]; dosage 80 g/ha): 80%; Pre-emergence action against VIOTR in % (Viola tricolor (VIOTR) [14]; dosage 80 g/ha): 90%; Pre-emergence action against SETVI in % (Setaria viridis (SETVI) [17]; dosage 80 g/ha): 90%; Post-emergence action against AVEFA in % (Avena fatua (AVEFA) [19]; 80 g/ha): 80%; Pre-emergence action against LOLRI in % (Lolium rigidum (LOLRI) [21]; dosage 80 g/ha): 80%
2 | CCOC(=O)COc1nn(-c2ccccn2)c(-c2ccc(F)nc2)c1I [Example I-121] | 100 | 0 | 100 |  | 100 | 100 | 80 |  | 100 | 80 | 80 | 100 | 0 | 0 | 100 | 100 | 100 | 90 | 100 | 100 | Post-emergence action against VIOTR in % (Viola tricolor (VIOTR) [4]): 80%; Post-emergence action against DIGSA in % ([24]; 80 g/ha): 80%; Post-emergence action against POLCO in % [10]: 80%; Pre-emergence action against MATIN in % [25]: 80%
3 | O=C(O)COc1nn(-c2ccccn2)c(-c2ccc(F)nc2)c1I [Example I-103] |  | 0 | 90 | 80 |  | 100 |  | 80 | 90 | 80 |  | 90 | 0 | 0 |  |  | 100 | 80 | 80 | 90 | Pre-emergence action against ZEAMX in % (Zea mays (ZEAMX)): 0%; Post-emergence action against AMARE in % [9]: 80%; Pre-emergence action against PHBPU in % ([26]; dosage 320 g/ha): 80%; Post-emergence action against TRZAS in % [27]: 0%
4 | CCOC(=O)CN(C)S(=O)(=O)NC(=O)COc1nn(-c2ccccn2)c(-c2ccc(F)nc2)c1Br [Example I-120] |  | 0 | 90 | 80 |  | 80 |  | 80 | 80 | 90 | 100 | 100 | 10 | 20 | 100 | 100 | 80 |  |  | 90 | Pre-emergence action against ORYSA in % (Oryza sativa (ORYSA) [2]; 320 g/ha): 10%; Post-emergence action against AMARE in % [9]: 80%
5 | C#CCOC(=O)COc1nn(-c2ccccn2)c(-c2ccc(F)nc2)c1Br [Example I-360] | 100 | 10 | 90 |  | 100 | 100 | 80 | 80 | 100 | 80 | 90 | 100 |  | 20 | 90 | 100 | 100 | 90 | 90 | 100 | Post-emergence action against ABUTH in % ([5]; 320 g/ha): 80%; Pre-emergence action against ALOMY ([7]; 80 g/ha): 100%; Post-emergence action against ECHCG in % ([8]; dosage 320 g/ha): 80%; Post-emergence action against DIGSA in % ([24]; 80 g/ha): 80%; Post-emergence action against DIGSA in % ([24]; 320 g/ha): 80%; Post-emergence action against PHBPU in % ([11]; dosage 320 g/ha): 80%; Pre-emergence action against PHBPU in % ([26]; dosage 80 g/ha): 80%; Pre-emergence action against PHBPU in % ([26]; dosage 320 g/ha): 90%; Post-emergence action against LOLRI in % (Lolium rigidum (LOLRI) [13]; dosage 320 g/ha): 90%; Post-emergence action against VERPE in % ([15]; 320 g/ha, VERPE): 80%; Post-emergence action against SETVI in % (Setaria viridis (SETVI) [28]; dosage 80 g/ha): 80%; Post-emergence action against SETVI in % (Setaria viridis (SETVI) [28]; dosage 320 g/ha): 80%; Post-emergence action against ALOMY in % ([16]; 320 g/ha): 90%; Pre-emergence action against SETVI in % (Setaria viridis (SETVI) [17]; dosage 80 g/ha): 90%; Post-emergence action against AVEFA in % (Avena fatua (AVEFA) [19]; 320 g/ha): 80%; Pre-emergence action against MATIN in % [25]: 90%

— patent US20240041042A1, “1-(PYRIDYL)-5-AZINYLPYRAZOLE DERIVATIVES, AND THEIR USE FOR CONTROL OF UNDESIRED PLANT GROWTH” (Bayer Aktiengesellschaft, priority 2020, published 2024)
